For assay [1], the target named is AMPK alpha1/beta2/gamma1 (Homo sapiens, UniProt O43741+P54619+Q13131). Kind of assay: Binding affinity to human recombinant N-terminal AVI-tagged phosphorylated AMPK alpha1beta2gamma1 expressed in Escherichia coli BL21 cells after 1 to 10 mins by biolayer interferometry.
The target in assay [2] is AMP-activated protein kinase (AMPK) alpha-1/beta-1/gamma-1 (Homo sapiens, UniProt P54619+Q13131+Q9Y478). Description: Binding affinity to human recombinant N-terminal AVI-tagged phosphorylated AMPK alpha1beta1gamma1 expressed in Escherichia coli BL21 cells after 1 to 10 mins by biolayer interferometry.
Chain of AMP-activated protein kinase (AMPK) alpha-1/beta-1/gamma-1 (P54619 whole entry): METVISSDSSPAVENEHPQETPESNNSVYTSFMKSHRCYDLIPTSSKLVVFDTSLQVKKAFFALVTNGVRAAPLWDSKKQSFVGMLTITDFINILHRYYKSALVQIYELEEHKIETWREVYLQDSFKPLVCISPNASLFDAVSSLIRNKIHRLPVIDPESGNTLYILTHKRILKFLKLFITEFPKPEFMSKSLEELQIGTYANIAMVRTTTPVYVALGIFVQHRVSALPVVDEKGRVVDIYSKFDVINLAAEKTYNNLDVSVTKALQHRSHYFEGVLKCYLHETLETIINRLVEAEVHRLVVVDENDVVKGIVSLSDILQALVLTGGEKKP
Chain of AMP-activated protein kinase (AMPK) alpha-1/beta-1/gamma-1 (Q9Y478 whole entry): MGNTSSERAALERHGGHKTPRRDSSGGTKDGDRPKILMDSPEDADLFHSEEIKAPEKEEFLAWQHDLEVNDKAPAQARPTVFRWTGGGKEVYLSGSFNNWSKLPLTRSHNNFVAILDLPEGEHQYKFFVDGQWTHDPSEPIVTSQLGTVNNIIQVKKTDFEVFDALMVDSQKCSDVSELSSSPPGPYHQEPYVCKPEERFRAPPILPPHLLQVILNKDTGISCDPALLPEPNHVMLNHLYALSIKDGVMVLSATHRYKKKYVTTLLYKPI
Chain of AMP-activated protein kinase (AMPK) alpha-1/beta-1/gamma-1 (Q13131 whole entry): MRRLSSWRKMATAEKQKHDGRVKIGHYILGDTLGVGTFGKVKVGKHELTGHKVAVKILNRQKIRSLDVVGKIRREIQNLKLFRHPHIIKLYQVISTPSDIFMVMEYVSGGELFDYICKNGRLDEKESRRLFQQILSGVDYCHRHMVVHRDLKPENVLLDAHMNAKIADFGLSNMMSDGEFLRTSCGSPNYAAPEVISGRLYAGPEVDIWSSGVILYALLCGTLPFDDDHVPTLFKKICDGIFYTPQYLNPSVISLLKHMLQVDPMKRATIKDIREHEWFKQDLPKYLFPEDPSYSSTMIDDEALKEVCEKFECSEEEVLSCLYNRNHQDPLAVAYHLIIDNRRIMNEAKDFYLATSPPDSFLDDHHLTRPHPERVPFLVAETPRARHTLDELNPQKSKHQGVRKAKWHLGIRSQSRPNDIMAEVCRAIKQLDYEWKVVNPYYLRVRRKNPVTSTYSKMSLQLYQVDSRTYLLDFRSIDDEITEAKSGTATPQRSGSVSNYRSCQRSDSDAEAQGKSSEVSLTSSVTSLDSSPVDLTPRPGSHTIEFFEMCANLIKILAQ
Assay [3] relates to HEK293. Kind of assay: Selectivity ratio of FLAG-tagged wild type AMPK beta1 (unknown origin) expressed in HEK293 cells over FLAG-tagged wild type AMPK beta2 (unknown origin) expressed in HEK293 cells. Type of assay: cell-based. To be noted: Homo sapiens.

Chain of AMPK alpha1/beta2/gamma1 (O43741 whole entry): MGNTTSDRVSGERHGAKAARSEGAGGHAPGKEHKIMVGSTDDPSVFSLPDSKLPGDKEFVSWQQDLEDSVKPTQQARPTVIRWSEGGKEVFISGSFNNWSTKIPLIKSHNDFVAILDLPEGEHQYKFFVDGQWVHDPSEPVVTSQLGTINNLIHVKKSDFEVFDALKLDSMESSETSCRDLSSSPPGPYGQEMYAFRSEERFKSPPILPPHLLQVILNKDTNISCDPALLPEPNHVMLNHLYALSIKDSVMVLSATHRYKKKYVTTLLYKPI
Chain of AMPK alpha1/beta2/gamma1 (P54619 whole entry): as the sequence (P54619 whole entry) above
Chain of AMPK alpha1/beta2/gamma1 (Q13131 whole entry): as the sequence (Q13131 whole entry) above

`N#Cc1c(O)c2c(-c3ccc(-c4ccccc4O)cc3)csc2[nH]c1=O`: the Kd in assay [1] was found to be 14.5 µM; in assay [2] it was 0.51 µM. Also, the Selectivity ratio in assay [3] amounted to 30.

Values taken from ChEMBL document CHEMBL3804759, “Pharmacological Targeting of AMP-Activated Protein Kinase and Opportunities for Computer-Aided Drug Design” (J Med Chem, 2016).
